The values that follow come from patent publication US12281161B2, “Polypeptides and uses thereof” (TRUSTEES OF BOSTON UNIVERSITY, priority 2021, dated 2025).

One data set relates to A549. Briefly: in vitro toxicity of αHER2-P3 based ADC. The following applies: A549, 72 h, up to 10 μg/ml ADC (equivalent to 100 ng/ml MMAE).
The next data set relates to NCI-H226. Put plainly: preliminary toxicity study of MMAE in NSCLC line. The class given is cell-based, human. The source says: (§1) There are various linker chemistries for ADCs in use clinically and being investigated, as described in Chapter One. A common motif in ADCs is the valine-citrulline dipeptide which is recognized by human Cathepsin B, a lysosomal enzyme. The full motif typically used is valine-citrulline-p-aminobenzylcarbamate-monomethyl auristin E (vc-MMAE). […] The vc-MMAE structure is used in several FDA approved ADCs (brentuximab vedotin, polatuzumab vedotin, enfortumab vedotin) which target both hematologic and solid tumors.

In data set [1] the test system is NCI-H520. Briefly: preliminary toxicity study of MMAE in NSCLC line. The class given is cell-based, human.
Text: as §1

For the next data set, the system named is SKBR-3. Briefly: in vitro toxicity of αHER2-P3 based ADC. The following applies: SKBR-3, 72 h, up to 10 μg/ml ADC (equivalent to 100 ng/ml MMAE).
Another data set deals with BEAS-2B. Put plainly: in vitro cytotoxicity (MTT). The class given is cell-based, human. The procedure: (§2) We utilized two different incubation methods.
(§3) We then incubated the human cell lines with ADC, and equivalent concentrations of MMAE and native Ab for both 48 hours and 72 hours, the results of which can be seen in FIG. 13A-13E. We expected the results to correlate with the GPR87 expression we observed by flow cytometry. For the normal cell lines, this was the case. As detailed in FIG. 14, the line that was most sensitive to the ADC were the NHLFs, followed by the BEAS-2Bs, and the line with the lowest GPR87 expression, the HUVECs, had the highest IC50 after 72 hours. However, both the NSCLC cell lines had relatively high IC50s given the GPR87 expression status of these lines.
(§4) Standard cytotoxicity assays, like the MTT assays ran here, measure or rather, approximate the cell number at an end point and compare to control untreated cells. Effectively what is measured is a comparison between growth rates. When comparing the efficacy of a drug, particularly a mitotic inhibitor, among different cell lines, division rate differences due to biology, media additives, or seeding density can have a dramatic effect on the IC50, an issue brought up by Hafner et al. They reported with both modeling and in vitro assays how using the IC50 as a metric can actually mask the true mechanism of a drug, for example the microtubule inhibitor paclitaxel. […] GR values indicate whether a drug inhibits growth (0<GR<1), is cytostatic (GR=0) or cytotoxic (GR<0). To calculate this parameter, one needs cell count data for at least two different time points and compares experimental growth rates to the growth rate of control cells. […] Consequently, we reviewed the data at our two time points to perform a similar analysis. We plated at the same seeding density for both the 48 and 72 hour time points. As MTT is an endpoint assay rather than a kinetic assay like MTS, we can use MTT signal as a proxy for cell count. […] Therefore, we excluded this cell line from our analysis. We are technically assessing the effect the ADC or equivalent MMAE has on the growth rate of cells at 60 hours, as we are measuring at t=x±delta t, with x being 60 and delta t being 12 hours. Ideally, we would assess an earlier time point or even multiple time points. […] (FIGS. 19A-19D). Conversely, both NCI-H520 and NCI-H358 are cytotoxic (GR<0) at higher concentrations of ADC at this time point. […] While the GR50 data is still not in agreement with GPR87 expression, it does indicate that this type of analysis at other, earlier, time points is useful in assessing the dynamics of ADC and MMAE cytotoxicity in these cell lines.

A further data set deals with NHLF. Put plainly: in vitro cytotoxicity (MTT). The class given is cell-based, human. How it is done: as §2, §3, §4
The test system of data set [2] is NCI-H520. Briefly: in vitro cytotoxicity (MTT). The class given is cell-based, human. The following applies: NCI-H520. The procedure:
as §2, §3
In comparison, NCI-H358 and NCI-H520 see approximately a 4-fold or 2-fold decrease in IC50, respectively, between the two time points. On the other hand, the NCI-H520 line has almost a 10-fold increase in MMAE IC50 at 72 hours compared to 48 hours. The results are likely because the cell lines are different sizes and morphologies and therefore are at different confluencies when plated at the same number of cells per well and are therefore likely to be in different parts of their log growth phase during treatment. For example, the NSCLC lines are typically at very low confluency at a plating density of 5,000 cells per well and may not reach log phase growth until later in the assay. As MMAE affects actively dividing cells, this will affect the results of the assay. While 72 hours was not the optimized end time point for all five cell lines, in order to have a standardized cell plating density, and therefore same ADC:cell ratio, going past 72 hours for some of the cell lines would lead to confluency or death in untreated control cells, which would also confound results. Thus, we incubated the two NSCLC lines for longer periods of time to allow the control cells to become more confluent by the assay endpoint, and to see how this would affect the ADC IC50.
as §4

The next data set concerns NIH-3T3. Put plainly: in vitro cytotoxicity, negative control line. The following applies: NIH-3T3, up to 10 μg/ml ADC or equivalent concentrations, 72 hours.
Data set [3] has as its system stage four mucinous lung adenocarcinoma patient derived xenograft (PDX). Put plainly: preliminary in vivo trafficking of AFC, IVIS imaging of PDX tumor bearing mouse. The settings on record: 24 hours after tail injection at 2.5 mg/kg. The procedure:
We had access to a stage four mucinous lung adenocarcinoma patient derived xenograft (PDX) model. We assessed the GPR87 positivity in the tumor and found it to be positive for GPR87. (FIG. 19A) We ran a preliminary study using the AFC to determine whether the AFC would traffic to the tumor in vivo. Twenty-four hours following injection in the tail at 2.5 mg/kg, the tail, tumor, and major organs were collected and imaged with an IVIS system. […] (FIG. 19B) We moved forward with a preliminary study of the AFC in PDX tumor bearing NSG mice. Four mice were injected with 10 mg/kg of AFC once the tumor reached approximately 200-300 mm^3 and blood was drawn at 4 hours, 3 days, and 2 weeks. The mice were intended to be kept for 2 weeks, but one animal had to be euthanized at day 3 due to tumor size. At the 2-week time point, we euthanized the other animals and harvested the organs. The plasma and organ AFC levels were analyzed by a custom ELISA which detects intact AFC, as described in Chapter Four. The results are seen in FIG. 20A. […] The Ab readout detected a higher concentration of Ab than AFC, however, the general trend of clearance is maintained. […] Whereas we detect <1 μg/ml of AFC at 3 days by either AFC or Ab readout, levels above 10 μg/ml have been reported with similar ADC DAR ratio (˜2) and dose (10 mg/kg). […]

Data set [4] concerns NCI-H520. Briefly: internalization of AFC, confocal colocalization with EEA1 / LAMP1. The class given is cell-based, human. The settings on record: NCI-H520, 3 μg/ml, 30 minutes and 1 hour. The procedure:
(§5) The GPR87 receptor is a G-protein coupled receptor (GPCR), a class of receptors which are activated by an extracellular ligand, initiating activation of associated intracellular G proteins for downstream signaling. Following activation, GPCRs are often internalized and recycled to prevent prolonged stimulation. […] Therefore, we wanted to confirm the uptake of our αGPR87 AFC in the two GPR87 high expressing NSCLC cell lines, NCI-H358 and NCI-H520. We cocultured the cells with 3 μg/ml of AFC for either 30 minutes or 1 hour and fixed and permeabilized the cells before immunofluorescently staining for either the early endosomal marker EEA1 or the lysosomal marker LAMP1. Shown in FIG. 11 are the images from these studies with the AFC signal, either the EEA1 or LAMP1 signal, and DAPI. The merged images are shown as well as the AFC and either EEA1 or LAMP1 signals merged, with colocalization. […] To investigate this further, we increased the concentration of AFC to 10 μg/ml and increased the incubation times to 1, 2, and 4 hours. […] By 2 hours, the AFC now is highly colocalized with the lysosomes and further colocalizes by the 4-hour timepoint while also showing less of a membranous staining pattern. From these analyses, we can determine that the AFC is indeed internalized by the human NSCLC cancer cell lines NCI-H520 and NCI-H358, albeit with different apparent kinetics.

In a further data set the test system is NCI-H358. The data set is described as above. The class given is cell-based, human. The settings on record: NCI-H358, 3 or 10 μg/ml, up to 4 hours. How it is done:
as §5

A short description of data set [5]: AFC concentration in blood plasma of Balb/c mice, ELISA. The class given is in vivo. The settings on record: 10 mg/kg, samples at 1 hour, 7 and 14 days. How it is done:
To make sure that the coiled-coil has no significant effect on antibody clearance, we performed a preliminary study of AFC concentration in blood plasma (FIG. 33). 10 mg/kg AFC was injected into two Balb/c mice. Blood samples were collected at 1 hour, 7 and 14 days and examined for AFC concentration by ELISA assay.
(In an ELISA, binding on a coated surface is turned into a signal by an enzyme label.)

The nature of data set [6]: preliminary AFC clearance and biodistribution in PDX tumor bearing NSG mice, ELISA. The class given is in vivo. The following applies: 10 mg/kg. The procedure:
We had access to a stage four mucinous lung adenocarcinoma patient derived xenograft (PDX) model. We assessed the GPR87 positivity in the tumor and found it to be positive for GPR87. (FIG. 19A) We ran a preliminary study using the AFC to determine whether the AFC would traffic to the tumor in vivo. Twenty-four hours following injection in the tail at 2.5 mg/kg, the tail, tumor, and major organs were collected and imaged with an IVIS system. […] (FIG. 19B) We moved forward with a preliminary study of the AFC in PDX tumor bearing NSG mice. Four mice were injected with 10 mg/kg of AFC once the tumor reached approximately 200-300 mm^3 and blood was drawn at 4 hours, 3 days, and 2 weeks. The mice were intended to be kept for 2 weeks, but one animal had to be euthanized at day 3 due to tumor size. At the 2-week time point, we euthanized the other animals and harvested the organs. The plasma and organ AFC levels were analyzed by a custom ELISA which detects intact AFC, as described in Chapter Four. The results are seen in FIG. 20A. […] We also ran an ELISA with an anti-mouse IgG secondary to determine the total Ab concentrations and assess whether the AFC was being cleared or was not stable (FIG. 20B). The Ab readout detected a higher concentration of Ab than AFC, however, the general trend of clearance is maintained. The concentration even by 3 days is markedly low for our AFC. Whereas we detect <1 μg/ml of AFC at 3 days by either AFC or Ab readout, levels above 10 μg/ml have been reported with similar ADC DAR ratio (˜2) and dose (10 mg/kg). However we are utilizing NSG mice to facilitate the PDX model. It has been reported that NSG mice have enhanced clearance rates of both antibodies and ADCs. However, even in comparison to the clearance rates in NSG mice noted by Li et al., AFC clearance is fast.
We also analyzed the organs at the 3 day and 2 week time point with an ELISA (FIGS. 20C-20D).

Where a SMILES comes first, the peptide text is derived from it. [ ]: non-standard residue; d: D form. The star is where a group is joined. Dolaproine = CO[C@@H]([C@@H]1CCCN1)[C@@H](C)C(=O)O; Dil = CC[C@H](C)[C@H](NC)[C@@H](CC(=O)O)OC; X1 = C[C@@H](N*)[C@@H](O)c1ccccc1; NMeV = CN[C@H](C(=O)O)C(C)C

Experimental for A549: (§6) The toxicity of the new ADC was investigated in vitro in the HER2-positive cell lines: SKBR-3 and A549. We treated the cells with up to 10 μg/ml of ADC (equivalent to 100 ng/ml of MMAE) along with native antibodies and free drug at equivalent concentrations.
Experimental for NIH-3T3: We incubated NIH-3T3s with up to 10 μg/ml of ADC (67 nM, equivalent to 96 ng/ml of MMAE) along with the native antibody and MMAE alone at equivalent concentrations.
Experimental for SKBR-3: as §6

As a reminder, the cell viability is a per cent measure of how many cells are alive, often set against a control. For orientation: IC50 means the concentration at which inhibition is half-maximal. For the molecule `CC[C@H](C)[C@@H]([C@@H](CC(=O)N1CCC[C@H]1[C@H](OC)[C@@H](C)C(=O)N[C@H](C)[C@@H](O)c1ccccc1)OC)N(C)C(=O)[C@@H](NC(=O)[C@@H](NC)C(C)C)C(C)C` [MMAE, Monomethyl auristatin E, reference compound] (H-[NMeV]V[Dil][Dolaproine]-X1), the cell viability in the data set with A549 and in the data set with SKBR-3 was 20% in each case. The IC50 was 0.294 nM in the data set on NCI-H226 and 0.042 nM in the data set on NCI-H520 [1]. In addition, the GR50 result in the data set with BEAS-2B is reported as “cannot be calculated”; in the data set with NHLF, “do not reach that value”. In addition, the “increase in IC50 at 72 hours compared to 48 hours” value with NCI-H520 [2] is reported as roughly 10 fold. For the same molecule, the cytotoxicity result with NIH-3T3 was “highly toxic”.

B1: AFC (conjugate)
heavy: EVQLQQSGPDLVKPGASMKISCKASGYSFTDYTMHWVKQSHGKNFEWIGLINPYNDGTTYNQKFKGKATLTVDKSSSTAYMELLSLTSEDSAVYYCASLDYWGQGTSVTVSSAKTTPPSVYPLAPGSAAQTNSMVTLGCLVKGYFPEPVTVTWNSGSLSSGVHTFPAVLQSDLYTLSSSVTVPSSTWPSETVTCNVAHPASSTKVDKKIVPRDCGCKPCICTVPEVSSVFIFPPKPKDVLTITLTPKVTCVVVDISKDDPEVQFSWFVDDVEVHTAQTQPREEQFNSTFRSVSELPIMHQDWLNGKEFKCRVNSAAFPAPIEKTISKTKGRPKAPQVYTIPPPKEQMAKDKVSLTCMITDFFPEDITVEWQWNGQPAENYKNTQPIMDTDGSYFVYSKLNVQKSNWEAGNTFTCSVLHEGLHNHHTEKSLSHSPGKGGGGGMKLKKIKSVLKKIKSVLKKIKSVLKKIKSVVGER
light: DVVMTQTPLSLPVSLGDQASISCRSSQSLVHSSGNTYLHWYLQKPGQSPKLLIYKVSNRFSGVPDRFSGSGSGTDFTLKISRVEAEDLGVYFCSQSTHVPYTFGGGTKLEIKRADAAPTVSIFPPSSEQLTSGGASVVCFLNNFYPKDINVKWKIDGSERQNGVLNSWTDQDSKDSTYSMSSTLTLTKDEYERHNSYTCEATHKTSTSPIVKSFNRNEC
peptide: MKLEEIVSELEEIVSELEEIVKELEEIVYEVGER
Take B1: the “fluorescence of tail, tumor and major organs” value in data set [3] was “tail (injection site) and tumor both showed high fluorescence, with little fluorescence in the major organs”. Also, the internalization entry in the data set on NCI-H520 [4] and in the data set on NCI-H358 was “internalized” each time. In addition, the “AFC concentration in plasma” value in [5] is “A small amount of AFC was detected in plasma after 7 days”. The “plasma concentration at 3 days” value in data set [6] (by either AFC or Ab readout) was less than 1000 ng/mL. The “concentration in tumor and organs” value in data set [6] (compared to liver, kidney, spleen, heart and lung, preliminary) is “highest in the tumor at 3 days and at 2 weeks”. For the same molecule, in data set [6] (plasma at 4 hours, 3 days, 2 weeks), the clearance result is “rapidly cleared”.
